Measurements from patent US10239869B2, “Sulfonamide compounds as voltage-gated sodium channel modulators” (LUPIN LIMITED, priority 2015, dated 2019).
pIC50: −log10 of the molar value. Read-outs that look alike come from different tables or passages of the source.

Key:
[1] = molecular target: Nav 1.5 (Homo sapiens (Human), UniProt Q14524); test: Inhibition of sodium channels, Red Membrane Potential Dye FLIPR assay, veratridine depolarization; format: cell-based; settings: HEK-293 cells overexpressing the channel; for inhibition at 10 µM: HEK-293 cells overexpressing Nav 1.5; for IC50: read-out: Nav1.5 IC50 (bound given in μM); for pIC50: read-out: Nav1.5 IC50
[2] = molecular target: Nav 1.7 (Homo sapiens (Human), UniProt Q15858); test: as above; format: cell-based; settings: HEK-293 cells overexpressing the channel; read-out: Nav1.7 IC50
Chain of Nav 1.7 (Q15858 whole entry): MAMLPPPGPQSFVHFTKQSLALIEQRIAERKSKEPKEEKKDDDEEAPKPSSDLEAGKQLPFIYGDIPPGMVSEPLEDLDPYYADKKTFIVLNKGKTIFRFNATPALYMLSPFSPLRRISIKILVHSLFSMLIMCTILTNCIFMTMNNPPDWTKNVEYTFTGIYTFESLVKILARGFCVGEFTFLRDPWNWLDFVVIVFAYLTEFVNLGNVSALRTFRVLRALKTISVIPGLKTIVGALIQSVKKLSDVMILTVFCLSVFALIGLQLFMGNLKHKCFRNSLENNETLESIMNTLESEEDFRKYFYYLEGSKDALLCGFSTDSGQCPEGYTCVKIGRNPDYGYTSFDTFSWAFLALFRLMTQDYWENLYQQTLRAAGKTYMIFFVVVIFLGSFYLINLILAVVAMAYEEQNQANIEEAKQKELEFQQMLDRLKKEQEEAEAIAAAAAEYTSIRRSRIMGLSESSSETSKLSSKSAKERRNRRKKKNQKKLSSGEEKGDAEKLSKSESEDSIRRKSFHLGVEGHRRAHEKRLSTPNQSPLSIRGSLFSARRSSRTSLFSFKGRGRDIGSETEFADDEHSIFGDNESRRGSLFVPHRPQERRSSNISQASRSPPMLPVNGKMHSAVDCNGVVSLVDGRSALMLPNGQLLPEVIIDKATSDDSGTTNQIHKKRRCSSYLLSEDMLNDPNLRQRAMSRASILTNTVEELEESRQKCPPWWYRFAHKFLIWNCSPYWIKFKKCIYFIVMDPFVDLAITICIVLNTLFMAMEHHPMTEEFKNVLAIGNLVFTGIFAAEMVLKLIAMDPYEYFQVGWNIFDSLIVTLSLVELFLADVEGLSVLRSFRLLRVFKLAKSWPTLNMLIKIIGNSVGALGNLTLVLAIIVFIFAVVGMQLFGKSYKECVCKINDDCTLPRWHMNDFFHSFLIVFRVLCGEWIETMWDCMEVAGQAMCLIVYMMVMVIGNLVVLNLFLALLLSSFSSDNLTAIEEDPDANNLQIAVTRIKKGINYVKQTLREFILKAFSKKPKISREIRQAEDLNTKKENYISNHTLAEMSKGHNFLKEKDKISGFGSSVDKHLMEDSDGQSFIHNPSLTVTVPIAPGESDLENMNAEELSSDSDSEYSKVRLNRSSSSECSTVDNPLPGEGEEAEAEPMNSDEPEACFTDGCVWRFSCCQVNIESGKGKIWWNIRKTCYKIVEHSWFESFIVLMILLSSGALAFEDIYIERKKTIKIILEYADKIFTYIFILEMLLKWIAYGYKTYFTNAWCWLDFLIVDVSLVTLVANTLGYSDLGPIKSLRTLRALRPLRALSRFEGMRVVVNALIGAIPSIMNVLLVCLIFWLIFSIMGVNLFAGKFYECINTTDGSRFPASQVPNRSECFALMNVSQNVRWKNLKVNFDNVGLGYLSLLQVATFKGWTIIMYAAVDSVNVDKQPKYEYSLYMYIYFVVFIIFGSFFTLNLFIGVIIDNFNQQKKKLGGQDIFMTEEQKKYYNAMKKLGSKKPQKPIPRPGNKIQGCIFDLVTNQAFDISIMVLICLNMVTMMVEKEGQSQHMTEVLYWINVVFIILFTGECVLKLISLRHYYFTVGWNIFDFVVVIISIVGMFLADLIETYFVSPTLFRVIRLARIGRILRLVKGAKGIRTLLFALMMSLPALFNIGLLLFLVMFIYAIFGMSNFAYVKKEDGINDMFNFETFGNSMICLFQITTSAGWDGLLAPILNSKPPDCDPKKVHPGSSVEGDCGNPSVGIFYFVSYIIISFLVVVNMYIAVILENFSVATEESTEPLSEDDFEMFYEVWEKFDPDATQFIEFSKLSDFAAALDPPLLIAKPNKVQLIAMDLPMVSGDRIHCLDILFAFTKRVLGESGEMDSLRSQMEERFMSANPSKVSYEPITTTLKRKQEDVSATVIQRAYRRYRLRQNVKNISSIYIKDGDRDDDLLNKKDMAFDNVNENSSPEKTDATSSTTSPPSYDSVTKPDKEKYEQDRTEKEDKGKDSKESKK

Chain of Nav 1.5 (Q14524 whole entry): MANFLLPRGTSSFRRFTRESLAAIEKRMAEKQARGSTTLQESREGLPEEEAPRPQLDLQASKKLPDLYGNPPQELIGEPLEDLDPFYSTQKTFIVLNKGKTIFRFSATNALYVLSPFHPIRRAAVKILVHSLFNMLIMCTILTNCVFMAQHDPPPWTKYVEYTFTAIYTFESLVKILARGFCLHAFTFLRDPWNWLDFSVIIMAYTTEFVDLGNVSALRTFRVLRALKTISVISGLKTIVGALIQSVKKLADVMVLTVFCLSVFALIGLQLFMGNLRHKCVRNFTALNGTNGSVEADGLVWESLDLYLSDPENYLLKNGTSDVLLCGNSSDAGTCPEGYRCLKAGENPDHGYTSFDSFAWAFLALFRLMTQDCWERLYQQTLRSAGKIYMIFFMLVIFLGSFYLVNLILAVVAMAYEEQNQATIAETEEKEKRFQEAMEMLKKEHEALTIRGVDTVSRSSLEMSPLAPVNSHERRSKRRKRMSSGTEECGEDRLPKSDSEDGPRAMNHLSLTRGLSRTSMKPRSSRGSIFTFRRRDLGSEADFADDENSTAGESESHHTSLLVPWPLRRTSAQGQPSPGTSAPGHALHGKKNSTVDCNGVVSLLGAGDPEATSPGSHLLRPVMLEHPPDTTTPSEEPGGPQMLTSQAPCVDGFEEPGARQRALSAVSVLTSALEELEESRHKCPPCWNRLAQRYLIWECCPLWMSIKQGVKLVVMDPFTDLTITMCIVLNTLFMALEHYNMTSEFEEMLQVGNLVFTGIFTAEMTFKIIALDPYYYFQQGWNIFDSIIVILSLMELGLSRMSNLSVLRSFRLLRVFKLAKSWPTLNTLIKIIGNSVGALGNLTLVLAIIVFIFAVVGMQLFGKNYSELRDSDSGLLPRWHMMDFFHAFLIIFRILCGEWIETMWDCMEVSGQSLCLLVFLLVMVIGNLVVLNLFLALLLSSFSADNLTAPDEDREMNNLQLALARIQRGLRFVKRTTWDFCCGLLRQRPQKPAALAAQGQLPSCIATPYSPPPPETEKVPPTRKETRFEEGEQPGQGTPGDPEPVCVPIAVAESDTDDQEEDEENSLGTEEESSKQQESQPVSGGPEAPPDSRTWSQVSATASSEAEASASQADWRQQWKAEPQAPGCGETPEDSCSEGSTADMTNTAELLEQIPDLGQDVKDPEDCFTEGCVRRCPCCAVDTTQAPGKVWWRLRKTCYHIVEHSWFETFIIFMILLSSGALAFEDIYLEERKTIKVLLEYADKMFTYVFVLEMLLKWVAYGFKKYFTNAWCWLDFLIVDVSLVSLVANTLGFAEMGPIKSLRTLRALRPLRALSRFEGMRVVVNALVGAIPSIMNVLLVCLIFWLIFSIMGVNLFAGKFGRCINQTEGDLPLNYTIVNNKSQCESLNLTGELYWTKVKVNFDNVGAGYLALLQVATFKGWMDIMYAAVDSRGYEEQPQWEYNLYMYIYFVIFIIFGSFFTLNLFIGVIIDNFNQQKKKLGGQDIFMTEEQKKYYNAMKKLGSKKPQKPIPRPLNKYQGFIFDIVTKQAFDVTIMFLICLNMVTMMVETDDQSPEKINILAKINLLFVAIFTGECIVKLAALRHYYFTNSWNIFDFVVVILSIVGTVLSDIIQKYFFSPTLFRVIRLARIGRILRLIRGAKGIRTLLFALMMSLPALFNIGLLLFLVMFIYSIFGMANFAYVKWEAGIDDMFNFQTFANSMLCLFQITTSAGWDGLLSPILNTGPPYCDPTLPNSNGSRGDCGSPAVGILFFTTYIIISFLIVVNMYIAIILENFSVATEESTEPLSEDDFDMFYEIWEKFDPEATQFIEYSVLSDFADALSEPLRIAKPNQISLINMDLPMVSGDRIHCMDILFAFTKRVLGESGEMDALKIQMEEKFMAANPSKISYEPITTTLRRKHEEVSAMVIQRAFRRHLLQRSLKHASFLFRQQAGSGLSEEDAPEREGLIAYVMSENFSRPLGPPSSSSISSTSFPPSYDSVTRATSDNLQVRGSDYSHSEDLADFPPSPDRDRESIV

pIC50 [2]	Structure (SMILES)	inhibition at 10 µM [1]	IC50 [1]	pIC50 [1]
8.00	O=S(=O)(Nc1ncc(F)cn1)c1ccc2c(c1)OCC[C@@H]2c1ccc(C(F)(F)F)cc1CCCF (racemic) [Example 159, (R/S)-4-(2-(3-fluoropropyl)-4-(trifluoromethyl)phenyl)-N-(5-fluoropyrimidin-2-yl)chroman-7-sulfonamide]			6.03
9.15	O=S(=O)(Nc1ccncn1)c1ccc2c(c1)OCC[C@@H]2c1ccc(C(F)(F)F)cc1CCCF (racemic) [Example 160, (R/S)-4-(2-(3-fluoropropyl)-4-(trifluoromethyl)phenyl)-N-(pyrimidin-4-yl)chroman-7-sulfonamide]	61%		
7.92	O=S(=O)(Nc1cccnn1)c1ccc2c(c1)OCC[C@@H]2c1ccc(C(F)(F)F)cc1CCCF (racemic) [Example 161, (R/S)-4-(2-(3-fluoropropyl)-4-(trifluoromethyl)phenyl)-N-(pyridazin-3-yl)chroman-7-sulfonamide]			5.87
9.15	O=S(=O)(Nc1cccc(F)n1)c1ccc2c(c1)OCC[C@@H]2c1ccc(C(F)(F)F)cc1CCCF (racemic) [Example 162, (R/S)-4-(2-(3-fluoropropyl)-4-(trifluoromethyl)phenyl)-N-(6-fluoropyridin-2-yl)chroman-7-sulfonamide]			5.58
7.38	O=S(=O)(Nc1ncccn1)c1ccc2c(c1)OCC[C@@H]2c1ccc(C(F)(F)F)cc1CCCCF (racemic) [Example 163, (R/S)-4-(2-(4-fluorobutyl)-4-(trifluoromethyl)phenyl)-N-(pyrimidin-2-yl)chroman-7-sulfonamide]			6.51
7.21	O=S(=O)(Nc1ncc(F)cn1)c1ccc2c(c1)OCC[C@@H]2c1ccc(C(F)(F)F)cc1CCCCF (racemic) [Example 164, (R/S)-4-(2-(4-fluorobutyl)-4-(trifluoromethyl)phenyl)-N-(5-fluoropyrimidin-2-yl)chroman-7-sulfonamide]	81%		

More lines, now with the values behind:

Structure (SMILES)	pIC50 [2]	inhibition at 10 µM [1]	IC50 [1]	pIC50 [1]
O=S(=O)(Nc1ncccn1)c1ccc2c(c1)OCC[C@@H]2c1ccc(C(F)(F)F)cc1CCF (racemic) [Example 153, (R/S)-4-(2-(2-fluoroethyl)-4-(trifluoromethyl)phenyl)-N-(pyrimidin-2-yl)chroman-7-sulfonamide]	7.41	35%		
O=S(=O)(Nc1ncc(F)cn1)c1ccc2c(c1)OCC[C@@H]2c1ccc(C(F)(F)F)cc1CCF (racemic) [Example 154, (R/S)-4-(2-(2-fluoroethyl)-4-(trifluoromethyl)phenyl)-N-(5-fluoropyrimidin-2-yl)chroman-7-sulfonamide]	7.08		> 10 µM	
O=S(=O)(Nc1ccncn1)c1ccc2c(c1)OCC[C@@H]2c1ccc(C(F)(F)F)cc1CCF (racemic) [Example 155, (R/S)-4-(2-(2-fluoroethyl)-4-(trifluoromethyl)phenyl)-N-(pyrimidin-4-yl)chroman-7-sulfonamide]	8.40		> 10 µM	
O=S(=O)(Nc1cccnn1)c1ccc2c(c1)OCC[C@@H]2c1ccc(C(F)(F)F)cc1CCF (racemic) [Example 156, (R/S)-4-(2-(2-fluoroethyl)-4-(trifluoromethyl)phenyl)-N-(pyridazin-3-yl)chroman-7-sulfonamide]	7.38	36%		
O=S(=O)(Nc1cccc(F)n1)c1ccc2c(c1)OCC[C@@H]2c1ccc(C(F)(F)F)cc1CCF (racemic) [Example 157, (R/S)-4-(2-(2-fluoroethyl)-4-(trifluoromethyl)phenyl)-N-(6-fluoropyridin-2-yl)chroman-7-sulfonamide]	7.38		> 10 µM	
O=S(=O)(Nc1ncccn1)c1ccc2c(c1)OCC[C@@H]2c1ccc(C(F)(F)F)cc1CCCF (racemic) [Example 158, (R/S)-4-(2-(3-fluoropropyl)-4-(trifluoromethyl)phenyl)-N-(pyrimidin-2-yl)chroman-7-sulfonamide]	6.89			6.30
